Experimental data published in publication PMC12898745, “VOCs Profiling and Quality Assessment of Milk Employing Odorant-Binding Proteins-Based Fluorescence Biosensor” (International Journal of Molecular Sciences, 2026).
Like-named read-outs stand apart in the source and are kept apart here. Each block holds one molecule with its values, some of them ahead of it.

Assays:
pOBP [1] = molecular target: T1, pOBP (Sus scrofa, UniProt P81245); experiment: Fluorescence titration with 1-AMA and competitive FRET assay on pOBP; assay type: binding, porcine
T1 sequence (P81245 1-157): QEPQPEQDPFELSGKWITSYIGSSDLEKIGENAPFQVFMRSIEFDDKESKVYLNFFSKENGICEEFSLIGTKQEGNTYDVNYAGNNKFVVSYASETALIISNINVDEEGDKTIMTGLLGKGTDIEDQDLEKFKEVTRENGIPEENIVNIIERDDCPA
Protocol: (§1) The ability of pOBP and bOBP to bind 1-AMA was assessed through fluorescence titration experiments. […] However, upon binding 1-AMA to OBPs, two major spectral changes were observed: • A blue-shift in the emission maximum to 481 nm, along with a significant increase in fluorescence intensity. • A decrease in the tryptophan fluorescence emission at 340 nm.
(§2) A competitive FRET assay was performed to study the interaction between the OBP and the selected VOCs. In the assay, a solution of OBPs in the presence of 1-AMA was titrated with increasing concentrations of VOCs. The fluorescence emissions at 481 nm (1-AMA bound state) and 340 nm (tryptophan emission) were recorded. A progressive decrease of 1-AMA fluorescence emission and a partial recovery of the protein tryptophan emission were observed. This trend indicates the displacement of 1-AMA from the protein binding site by individual selected VOCs. The variations in the FRET signals, due to competitive binding, were used to quantify the VOC bound to the protein.
Steady-state fluorescence measurements were conducted using an ISS K2 Frequency-Domain Fluorometer (ISS Inc., Champaign, IL, USA) with a 1.0 cm path length quartz cuvette. Fluorescence spectra of bOBP and pOBP samples were recorded, ensuring optical densities below 0.1 OD at 295 nm to prevent inner filter effects. Tryptophan (Trp) residues were excited at 295 nm, and fluorescence emission spectra were collected from 320 nm to 600 nm at 1 nm intervals, with a scan speed of 100 nm/min and excitation and emission slit widths set at 1.0 nm. The lamp power was maintained at 17.5 A. Assays were performed in 500 μL of phosphate saline buffer (PBS) at pH 7.4. The OBPs-VOCs interactions were studied by a fluorescence titration approach. For this purpose, the protein (12 µM, saturated with 1-AMA) was titrated with increasing concentrations of the tested VOC. The measurements were carried out in triplicate, and the obtained experimental data were processed by OriginPro 2021b software.
For the fluorometric competitive assay, the ability of OBPs to bind VOCs and 1-AMA was utilized to develop a FRET-based assay. The competition between VOCs and 1-AMA for binding to the OBP’s active site was studied by monitoring the fluorescence emission decrease consequent to the VOCs displacement of 1-AMA from the OBP’s active site. […] The measurements were carried out in triplicate, and the data were analyzed using the OriginPro 2021b software.

bOBP [2] = molecular target: T2, bOBP (Bos taurus, UniProt P07435); experiment: Fluorescence titration with 1-AMA and competitive FRET assay on bOBP; assay type: binding, bovine; conditions: read-out: bOBP Kd ± SD; non-linear fitting; PBS pH 7.4; VOCs by displacement of 1-AMA
T2 sequence (P07435 1-159): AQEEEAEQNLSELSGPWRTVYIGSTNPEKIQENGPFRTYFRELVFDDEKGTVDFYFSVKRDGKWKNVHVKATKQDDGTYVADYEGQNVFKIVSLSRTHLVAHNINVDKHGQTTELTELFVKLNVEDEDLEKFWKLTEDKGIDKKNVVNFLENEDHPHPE
Protocol: as §1
as §2, with “This trend indicates the displacement of 1-AMA from the protein binding site by individual selected VOCs.” left out
Steady-state fluorescence measurements were conducted using an ISS K2 Frequency-Domain Fluorometer (ISS Inc., Champaign, IL, USA) with a 1.0 cm path length quartz cuvette. Fluorescence spectra of bOBP and pOBP samples were recorded, ensuring optical densities below 0.1 OD at 295 nm to prevent inner filter effects. […] The OBPs-VOCs interactions were studied by a fluorescence titration approach. […]

[3] = molecular target: bovine serum albumin (BSA) (Bos taurus, UniProt P02769); experiment: HS-SPME/GC-MS binding assay with BSA (negative control protein); conditions: BSA in place of pOBP; 10 µM volatile, overnight, room temperature
bovine serum albumin (BSA), sequence (P02769 25-607): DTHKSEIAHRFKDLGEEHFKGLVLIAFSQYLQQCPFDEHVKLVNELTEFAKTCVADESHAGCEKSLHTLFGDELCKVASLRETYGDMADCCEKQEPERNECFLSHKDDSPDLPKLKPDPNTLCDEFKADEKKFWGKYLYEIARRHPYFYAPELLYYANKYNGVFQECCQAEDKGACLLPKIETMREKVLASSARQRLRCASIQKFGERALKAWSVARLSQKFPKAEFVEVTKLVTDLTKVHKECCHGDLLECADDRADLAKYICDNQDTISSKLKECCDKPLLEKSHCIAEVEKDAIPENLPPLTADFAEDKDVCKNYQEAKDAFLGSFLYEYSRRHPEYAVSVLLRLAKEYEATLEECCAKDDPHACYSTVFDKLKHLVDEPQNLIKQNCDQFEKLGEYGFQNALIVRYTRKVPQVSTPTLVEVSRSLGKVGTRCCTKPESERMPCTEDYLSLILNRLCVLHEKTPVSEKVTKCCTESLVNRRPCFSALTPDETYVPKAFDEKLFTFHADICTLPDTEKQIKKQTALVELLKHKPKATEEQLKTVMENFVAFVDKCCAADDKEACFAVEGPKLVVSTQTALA
Protocol: Afterwards, the fiber (DVB-Carboxen-PDMS, 2 cm length SUPELCO, Bellefonte, PA, USA) was automatically inserted in the vial for 60 min and then desorbed for 10 min at 250 °C in the injector port of a GC, model 7890A, Agilent (Agilent Technologies, Santa Clara, CA, USA) coupled to a mass spectrometer, model 5975 C (Agilent), where VOCs were thermally released and directly transported to a capillary column HP-Innowax (30 m × 0.25 mm × 0.5 µm Agilent J&W) for analysis. The oven temperature was set as follows: 40 °C for 1 min, ramped to 160 °C at 6 °C min^−1, then, after 1 min, increased 10 °C min^−1 to 210 °C, and finally ramped to 230 °C at 15 °C min^−1, and kept there for 5 min. The temperatures of the ion source and the quadrupole were 230 °C and 150 °C, respectively, and helium at a flow rate of 1.0 mL min^−1 was the carrier gas. The analyses were carried out using the pulsed spitless mode, and mass spectra were recorded at an ionization energy of 70 eV, with mass selective detector operating in the mass range between 30 and 300 u. […]
Linear retention indices (LRIs) were calculated using the same chromatographic conditions by injecting C8–C40 n-alkane series (Supelco, Bellefonte, PA, USA). VOCs were identified by comparing the mass spectra reported in the NIST-2014 and Wiley 7.0 libraries by matching the calculated LRI with the literature data and by valuating their retention times, with respect to those of pure standards, if available. The VOCs concentrations were expressed as the equivalent of the IS (percent ratio of the respective peak area relative to the IS area, RPA%), and areas were taken from the total ion chromatogram (TIC) according to the following equation: (Peak Area of each VOC/Peak Area IS) × 100. […]

pOBP [4] = molecular target: T1, pOBP; experiment: HS-SPME/GC-MS binding assay with pOBP; design: species or system porcine; conditions: pOBP 30 µM; 10 µM volatile, overnight, room temperature
Protocol: To assess the ability of pOBP to bind VOCs, HS-SPME/GC-MS analyses were carried out on binding assays in the absence and in the presence of the two OBPs. Binding assay experiments were conducted in parallel on samples in the absence (only buffer as negative control) and in the presence of bovine serum albumin (BSA) (used as negative control of protein) or pOBP.
The HS-SPME/GC-MS technique was used to evaluate the VOCs profiles of samples of raw cow milk and, successively, the ability of purified OBPs to bind to selected VOCs in the gas phase. According to Sacchi et al., 5 mL of milk were introduced in a HS-SPME 20 mL glass vial, with 5 µL of a standard solution of 2-methyl-3-pentanone used as internal standard (IS, 5 mM). Samples were equilibrated for 30 min at 55 °C to release VOCs. […] The analyses were carried out using the pulsed spitless mode, and mass spectra were recorded at an ionization energy of 70 eV, with mass selective detector operating in the mass range between 30 and 300 u. […]
Linear retention indices (LRIs) were calculated using the same chromatographic conditions by injecting C8–C40 n-alkane series (Supelco, Bellefonte, PA, USA). VOCs were identified by comparing the mass spectra reported in the NIST-2014 and Wiley 7.0 libraries by matching the calculated LRI with the literature data and by valuating their retention times, with respect to those of pure standards, if available. The VOCs concentrations were expressed as the equivalent of the IS (percent ratio of the respective peak area relative to the IS area, RPA%), and areas were taken from the total ion chromatogram (TIC) according to the following equation: (Peak Area of each VOC/Peak Area IS) × 100.
Using the same experimental parameters reported above, HS-SPME/GC-MS analysis was also performed on pOBP samples with and without exposition to the HS of the selected VOCs. […] The peak areas measured for PBS-only and pOBP-comprising samples were compared for each experiment. […]

pOBP [5] = molecular target: T1, pOBP; experiment: Thermal denaturation of pOBP by tryptophan fluorescence; assay type: physicochemical, porcine; conditions: for effect of VOC on thermal stability (Tm) of pOBP: saturating concentrations: 1-pentanol 50 mM, 1-octen-3-ol 5 mM, 2-butanone 10 mM
Protocol: (§3) Thermal stability studies were conducted to evaluate the temperature-induced denaturation of the pOBP and bOBP. The experiments aimed to determine the unfolding dynamics of these proteins and assess the influence of VOCs on protein stability. The thermal stabilities of pOBP and bOBP were monitored by fluorescence spectroscopy. The temperature-dependent fluorescence emission spectra were recorded in the range 320–410 nm, with excitation at 295 nm to selectively excite tryptophan residues.
(§4) Boltzmann fitting was applied to describe the thermal denaturation behavior and determine the melting temperature (Tm) values, defined as the midpoint of the transition between the folded and unfolded states. The calculated Tm values were 62 ± 0.4 °C for pOBP (Figure 6b) and 54 ± 0.5 °C for bOBP (Figure 7b).
(§5) To analyze the protein’s thermal stability, studies on temperature-induced denaturation were conducted on the chosen OBPs in the absence and presence of the selected VOCs. The emission spectra were recorded at an excitation wavelength of 295 nm to focus only on the contribution of tryptophan residues with a 12 μM pOBP sample, with an optical density around 0.1 OD at 295 nm.
Fluorescence intensity variation was recorded in the temperature range from 25 to 95 °C and the emission spectra acquired in the wavelength range 320–410 nm. Measurements were performed in triplicate after 10 min of incubation at defined temperatures. […] To analyze the thermal denaturation data, OriginPro 2021b software was used.

bOBP [6] = molecular target: T3, bOBP (Bos taurus, UniProt P07435, H155C/INS121G/W64C); experiment: Thermal denaturation of bOBP by tryptophan fluorescence; assay type: physicochemical, bovine; conditions: saturating VOC concentrations
T3 construct: His tag; made in house
T3 sequence (P07435 with tags, fused parts or gaps W64C/INS121G/H155C): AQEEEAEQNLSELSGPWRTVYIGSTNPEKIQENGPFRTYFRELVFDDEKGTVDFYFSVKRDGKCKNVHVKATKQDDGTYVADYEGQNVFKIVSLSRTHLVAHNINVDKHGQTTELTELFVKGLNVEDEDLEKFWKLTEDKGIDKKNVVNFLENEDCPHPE
Protocol: as §3, §4, §5
Fluorescence intensity variation was recorded in the temperature range from 25 to 95 °C and the emission spectra acquired in the wavelength range 320–410 nm. […]

pOBP [7] = molecular target: T1, pOBP; experiment: Fluorescence quenching (Stern-Volmer) of pOBP; design: species or system porcine; conditions: acrylamide quencher, no VOC
Protocol: To study the protein conformational changes and accessibility to the tryptophan residues, fluorescence quenching experiments were conducted. According to Lakowicz, acrylamide is the most suitable quencher for tryptophan fluorescence. The quenching effect of acrylamide on the intrinsic fluorescence of the protein was analyzed. The study aimed to characterize the accessibility of tryptophan residues, to differentiate between static and dynamic quenching mechanisms, and to assess the effects of the VOCs binding on protein stability. Fluorescence quenching can occur through two primary mechanisms: dynamic (collisional) and static quenching. Dynamic quenching occurs when acrylamide molecules collide with the fluorophore in its excited state, facilitating a non-radiative energy transfer or electron exchange. […]
To evaluate the solvent accessibility of the OBP’s tryptophan residues, a fluorescence quenching assay was performed using acrylamide. […] Fluorescence emission spectra were acquired using an excitation wavelength of 295 nm and emission range from 310 to 410 nm.
Quenching data were evaluated using the Stern–Volmer equation by plotting F0/F against [Q], where F0 represents the fluorescence intensity without quencher, F is the fluorescence intensity in the presence of quencher, and [Q] denotes the quencher concentration [Equation (2)]:(2) F0/F=1+KSV [Q]

pOBP [8] = molecular target: T1, pOBP; design: method as in earlier work; conditions: HS-DSC, neutral pH; ref 21 (Staiano et al. 2007); cited from earlier work
[9] = competitive titration with VOC, Figure 4 insets, read-out: k (Hill fit), decrease of 1-AMA emission at 481 nm, pOBP
[10] = non-linear fitting, PBS pH 7.4, VOCs by displacement of 1-AMA, read-out: pOBP Kd ± SD

Molecule: Nc1cccc2cc3ccccc3cc12 [1-AMA, 1-aminoanthracene, reference compound]
Kd (pOBP [1]): 2.03 ± 0.13 µM
Kd (bOBP [2]): 2.68 ± 0.46 µM

%RPA, BSA [3]: 226.7 ± 8.9 %RPA
%RPA, pOBP (pOBP [4]): 708.1 ± 2.7 %RPA
Kd (pOBP [1]; [9]): 479 µM
Kd (pOBP [1]; [10]): 479 ± 53 µM
Tm of pOBP in the presence of VOC (pOBP [5]; saturating VOC concentration (1-octen-3-ol 5 mM)): 64 ± 1.45 °C
effect of VOC on thermal stability (Tm) of pOBP (pOBP [5]): significantly stabilized
Molecule: C=CC(O)CCCCC (stereo not drawn) [1-octen-3-ol]

%RPA, BSA [3]: 242.5 ± 5.1 %RPA
%RPA, pOBP (pOBP [4]): 425.0 ± 8.3 %RPA
Kd (pOBP [1]; [9]): 1860 µM
Kd (pOBP [1]; [10]): 1800 ± 1200 µM
effect of VOC on thermal stability (Tm) of bOBP (bOBP [6]): highest stability
effect of VOC on thermal stability (Tm) of pOBP (pOBP [5]): significantly stabilized
Molecule: CCCCCO [1-pentanol]

Molecule: CCC(C)=O [2-butanone]
%RPA, BSA [3]: 276.2 ± 2.7 %RPA
%RPA, pOBP (pOBP [4]): 926.7 ± 10.3 %RPA
Kd (pOBP [1]; [10]): 934 ± 56 µM
effect of VOC on thermal stability (Tm) of pOBP (pOBP [5]): significantly stabilized

Stern-Volmer constant K_SV, pOBP (pOBP [7]): 3 ± 1 M^−1
B1: pOBP: porcine odorant-binding protein, a typical monomeric lipocalin used as molecular recognition element (protein, UniProt P81245 1-157, looked up)
Odorant-binding protein: T1 sequence (P81245 1-157)
unfolding transition temperature of pOBP (pOBP [8]): approximately 69 °C
melting temperature (Tm) of pOBP (pOBP [5]; no VOC, Boltzmann fitting, emission 340 nm, 25-95 °C): 62 ± 0.4 °C
